Here are results for 17 molecules from patent US20260091026A1, “METHODS OF TREATING INFLAMMATORY DISEASES” (INTERLINE THERAPEUTICS, INC., priority 2023, published 2026).

In assay [1] the test system is THP1-Dual cells, NF-κB pathway (SEAP). Description: THP-1 Dual cell SEAP assay (L18-MDP stimulated). The format is cell-based. As to conditions: Homo sapiens, 10 ng/mL L18-MDP, 20-24 h, SEAP readout, read-out: IFNγ THP1 IC50. Summed up: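 IC50 values come from non-linear fits of % inhibition of SEAP, measured as QUANTI-Blue optical density (620-655 nm, 2 h) in media-blanked supernatants. These were taken from THP1-Dual cells treated with compound for 30 min before overnight exposure to 10 ng/mL L18-MDP final at 37 °C.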

Assay [2] addresses T1, GST-RIPK2 fusion protein (human RIPK2 amino acids 1-310) (Homo sapiens, UniProt O43353).
T1 construct: made in house; host or cells: baculovirus-infected Sf9 cells
Kind of assay: RIPK2 binding competition assay (TR-FRET, Tracer 199). As to conditions: displacement of Tracer 199 (10 nM), 45 min at 22° C. The text has this: The ability of selected compounds of Formulas (I) and (II) to inhibit the binding of an Alexa647-labelled ATP-competitive kinase inhibitor to a GST-RIPK2 fusion protein was quantified employing the TR-FRET-based RIPK2 binding competition assay as described in the following paragraphs.
Recombinant fusion protein of N-terminal Glutathione-S-Transferase (GST) and a fragment of human RIPK2 (amino acids 1-310 of accession number 043353), expressed in baculovirus infected Sf9 cells, purified via glutathione affinity chromatography, was used as GST-RIPK2 fusion protein. Tracer 199 from Life Technologies (catalogue no. PR9115B) was used as Alexa647-labelled ATP-competitive kinase inhibitor.
For the assay, 50 nL of a 100-fold concentrated solution of each test compound in DMSO was pipetted into either a black low volume 384-well microtiter plate or a black 1536-well microtiter plate (both Greiner Bio-One, Frickenhausen, Germany), 3 μL solution of Tracer 199 (16.7 nM=>final concentration in 5 μL assay volume is 10 nM) in aqueous assay buffer (25 mM Tris/HCl pH 7.5, 10 mM magnesium chloride (MgCl2), 5 mM β-glycerophosphate, 2.5 mM dithiothreitol (DTT), 0.5 mM ethylene glycol-bis(2-aminoethylether)-N,N,N′,N′-tetraacetic acid (EGTA), 0.5 mM sodium ortho-vanadate, 0.01% (w/v) bovine serum albumin (BSA), 0.005% (w/v) Pluronic F-127 (Sigma)) were added. Then the binding competition was started by the addition of 2 μL of a solution of the GST-RIPK2 fusion protein (2.5 nM=>final conc. in the 5 μL assay volume is 1 nM) and of Anti-GST-Tb (1.25 nM=>final conc. in the 5 μL assay volume is 0.5 nM), a Lumi4®—Tb cryptate-conjugated anti-GST antibody from PerkinElmer (catalogue no 61GSTTAH), in assay buffer.
The resulting mixture was incubated 45 min at 22° C. to allow the formation of a complex between the Tracer 199, the fusion protein and Anti-GST-Tb. Subsequently, the amount of this complex was evaluated by measurement of the resonance energy transfer from the Tb-cryptate to the Tracer 199. Therefore, the fluorescence emissions at 620 nm and 665 nm after excitation at 337 nm were measured in a TR-FRET reader, e.g. a Pherastar FS(BMG Labtechnologies, Offenburg, Germany) or a Viewlux (PerkinElmer). The ratio of the emissions at 665 nm and at 620 nm was taken as the measure of the amount of the complex. The data were normalized (assay reaction without inhibitor=0% activity, all other assay components but no GST-RIPK2 fusion protein=−100% activity).
Background: In TR-FRET formats the signal depends on donor and acceptor labels being close together.

The next assay has as its target T2, RIPK2 (KD)/XIAP (BIR2) (Homo sapiens, UniProt O43353).
T2 construct: made in house; host or cells: baculovirus-infected Sf9 cells
Description: RIPK2-XIAP binding competition PPI assay (TR-FRET). As to conditions: for Emax: 50 nM of GSK583 = -100% activity, read-out: PPI Amax; for IC50: GST-RIPK2 / His-XIAP (BIR2)-avi, 120 min at 23° C. Summed up: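 After 2 h at 23 °C, complex formation was read as the 665/520 nm emission ratio (337 nm excitation), scaled between uninhibited reaction and 50 nM GSK583. The mix held 1 nM human RIPK2 kinase fragment-GST, 25 nM His-tagged XIAP BIR2 and Tb/XL665 antibodies in pH 7.5 Tris buffer containing vanadate and glycerophosphate.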

SMILES strings stand for the structures.

T2 sequence (O43353 1-310): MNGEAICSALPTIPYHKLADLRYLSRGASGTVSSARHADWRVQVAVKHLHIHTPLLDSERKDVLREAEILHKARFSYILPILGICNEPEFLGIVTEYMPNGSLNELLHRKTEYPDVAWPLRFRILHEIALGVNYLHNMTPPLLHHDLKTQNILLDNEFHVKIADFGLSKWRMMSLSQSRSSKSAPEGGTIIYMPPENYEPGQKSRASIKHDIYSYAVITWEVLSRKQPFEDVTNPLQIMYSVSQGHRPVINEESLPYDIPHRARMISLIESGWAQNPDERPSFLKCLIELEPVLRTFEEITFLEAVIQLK
T1 sequence (O43353 1-310): as above

For the molecule `COc1cc2ncc(-n3cc(NC(=O)N4CCCC4c4ccccc4)cn3)n2cc1S(=O)(=O)C(C)(C)C` (racemic) [Example 177, N-(1-(6-(tert-butylsulfonyl)-7-methoxyimidazo[1,2-a]pyridin-3-yl)-1H-pyrazol-4-yl)-2-phenylpyrrolidine-1-carboxamide], the IC50 in assay [1] is over 2500 nM; in assay [2], over 1000 nM; at RIPK2 (KD)/XIAP (BIR2), over 1000 nM. Moreover, at RIPK2 (KD)/XIAP (BIR2), the Emax was at least 80%.

In the case of `COc1cc2ncc(-n3cc(N4CCC(c5ccccc5)C4=O)cn3)n2cc1S(=O)(=O)C(C)(C)C` (racemic) [Example 180, 1-(1-(6-(tert-butylsulfonyl)-7-methoxyimidazo[1,2-a]pyridin-3-yl)-1H-pyrazol-4-yl)-3-phenylpyrrolidin-2-one], the IC50 in assay [1] was over 2500 nM; in assay [2], over 1000 nM; at RIPK2 (KD)/XIAP (BIR2), over 1000 nM. Also, the Emax on RIPK2 (KD)/XIAP (BIR2) was at least 80%.

With `COc1cc2ncc(-c3cc(C(=O)N[C@H](C)c4ncccc4F)n(CCO)n3)n2cc1S(=O)(=O)C(C)(C)C` [Example 143, (R)-3-(6-(tert-butylsulfonyl)-7-methoxyimidazo[1,2-a]pyridin-3-yl)-N-(1-(3-fluoropyridin-2-yl)ethyl)-1-(2-hydroxyethyl)-1H-pyrazole-5-carboxamide], the half-maximal inhibitory concentration (IC50) in assay [1] lay in the range of 100 to 500 nM. Besides, on RIPK2 (KD)/XIAP (BIR2), the Emax is at least 80% and the IC50 lay within 10 to 100 nM.

For the molecule `COc1cc2ncc(-c3cc(C(=O)N[C@H](C)c4ccccn4)n(CCCO)n3)n2cc1S(=O)(=O)C(C)(C)C` [Example 144, (R)-3-(6-(tert-butylsulfonyl)-7-methoxyimidazo[1,2-a]pyridin-3-yl)-1-(3-hydroxypropyl)-N-(1-(pyridin-2-yl)ethyl)-1H-pyrazole-5-carboxamide], the half-maximal inhibitory concentration (IC50) was in the range of 100 to 500 nM in assay [1] and 10 to 100 nM on RIPK2 (KD)/XIAP (BIR2). Further, the Emax on RIPK2 (KD)/XIAP (BIR2) is at least 80%.

On to `COc1cc2ncc(-c3cc(C(=O)N[C@H](C)c4ncccc4F)n(CCCO)n3)n2cc1S(=O)(=O)C(C)(C)C` [Example 145, (R)-3-(6-(tert-butylsulfonyl)-7-methoxyimidazo[1,2-a]pyridin-3-yl)-N-(1-(3-fluoropyridin-2-yl)ethyl)-1-(3-hydroxypropyl)-1H-pyrazole-5-carboxamide], for which the IC50 in assay [1] was under 100 nM. Besides, on RIPK2 (KD)/XIAP (BIR2), the Emax was at least 80% and the IC50 lay within 10 to 100 nM.

Consider `COc1cc2ncc(-c3cc(C(=O)N[C@H](C)c4ccccn4)[nH]n3)n2cc1S(=O)(=O)C(C)(C)C` [Example 146, (R)-3-(6-(tert-butylsulfonyl)-7-methoxyimidazo[1,2-a]pyridin-3-yl)-N-(1-(pyridin-2-yl)ethyl)-1H-pyrazole-5-carboxamide], for which the IC50 in assay [1] was 100 to 500 nM. Besides, on RIPK2 (KD)/XIAP (BIR2), the Emax is at least 80% and the IC50 was in the range of 10 to 100 nM.

In the case of `COc1cc2ncc(-c3cc(C(=O)N[C@H](C)c4ncccc4F)n(C4CN(C)C4)n3)n2cc1S(=O)(=O)C(C)(C)C` [Example 147, (R)-3-(6-(tert-butylsulfonyl)-7-methoxyimidazo[1,2-a]pyridin-3-yl)-N-(1-(3-fluoropyridin-2-yl)ethyl)-1-(1-methylazetidin-3-yl)-1H-pyrazole-5-carboxamide], the half-inhibitory concentration (IC50) in assay [1] is 500 to 2500 nM. Also, on RIPK2 (KD)/XIAP (BIR2), the Emax was at least 80% and the half-maximal inhibitory concentration (IC50) lay within 100 to 1000 nM.

On to `COc1cc2ncc(-n3cc(C(=O)NCc4ccccc4)c(C)n3)n2cc1S(=O)(=O)C(C)(C)C` [Example 148, N-benzyl-1-(6-(tert-butylsulfonyl)-7-methoxyimidazo[1,2-a]pyridin-3-yl)-3-methyl-1H-pyrazole-4-carboxamide], for which, in assay [1], the half-maximal inhibitory concentration (IC50) was over 2500 nM. For the same molecule, at RIPK2 (KD)/XIAP (BIR2), the Emax was at least 80% and the concentration for half-maximal inhibition (IC50) lay in the range of 100 to 1000 nM.

For `COc1cc2ncc(-c3cc(NC(=O)OCc4ccccc4)n(C)n3)n2cc1S(=O)(=O)C(C)(C)C` [Example 149], the IC50 in assay [1] is 100 to 500 nM. Besides, on RIPK2 (KD)/XIAP (BIR2), the Emax was at least 80% and the half-maximal inhibitory concentration (IC50) was in the range of 10 to 100 nM.

Regarding `COc1cc2ncc(-c3cc(NC(=O)O[C@@H](C)c4ccccc4)n(C)n3)n2cc1S(=O)(=O)C(C)(C)C` [Example 150, (S)-1-phenylethyl (3-(6-(tert-butylsulfonyl)-7-methoxyimidazo[1,2-a]pyridin-3-yl)-1-methyl-1H-pyrazol-5-yl)carbamate], the half-inhibitory concentration (IC50) in assay [1] was 500 to 2500 nM; at RIPK2 (KD)/XIAP (BIR2), 100 to 1000 nM. Besides, the Emax on RIPK2 (KD)/XIAP (BIR2) was at least 80%.

For the molecule `COc1cc2ncc(-c3cc(NC(=O)O[C@H](C)c4ccccc4)n(C)n3)n2cc1S(=O)(=O)C(C)(C)C` [Example 151, (R)-1-phenylethyl (3-(6-(tert-butylsulfonyl)-7-methoxyimidazo[1,2-a]pyridin-3-yl)-1-methyl-1H-pyrazol-5-yl)carbamate], the IC50 in assay [1] was under 100 nM. At RIPK2 (KD)/XIAP (BIR2), the Emax is at least 80% and the half-inhibitory concentration (IC50) is under 10 nM.

With `C[C@H](CO)COc1cc2ncc(-c3cc(NC(=O)Cc4ccccc4Cl)n(C)n3)n2cc1S(=O)(=O)C(C)(C)C` [Example 187, (R)-N-(3-(6-(tert-butylsulfonyl)-7-(3-hydroxy-2-methylpropoxy)imidazo [1,2-a]pyridin-3-yl)-1-methyl-1H-pyrazol-5-yl)-2-(2-chlorophenyl)acetamide], the half-maximal inhibitory concentration (IC50) was 100 to 500 nM in assay [1] and under 10 nM at RIPK2 (KD)/XIAP (BIR2). At RIPK2 (KD)/XIAP (BIR2), the Emax is at least 80%.

`C[C@@H](CO)COc1cc2ncc(-c3cc(NC(=O)Cc4ccccc4Cl)n(C)n3)n2cc1S(=O)(=O)C(C)(C)C` [Example 188, (S)-N-(3-(6-(tert-butylsulfonyl)-7-(3-hydroxy-2-methylpropoxy)imidazo [1,2-a]pyridin-3-yl)-1-methyl-1H-pyrazol-5-yl)-2-(2-chlorophenyl) acetamide]: in assay [1], the half-maximal inhibitory concentration (IC50) lay within 100 to 500 nM. Besides, on RIPK2 (KD)/XIAP (BIR2), the Emax was at least 80% and the half-inhibitory concentration (IC50) is under 10 nM.

Take `CNc1nccn2c(-c3cc(C(=O)NCc4ccccc4)n(C)n3)cnc12` [Example 189, N-benzyl-1-methyl-3-(8-(methylamino)imidazo[1,2-a]pyrazin-3-yl)-1H-pyrazole-5-carboxamide]: the half-inhibitory concentration (IC50) in assay [1] was over 2500 nM. For the same molecule, at RIPK2 (KD)/XIAP (BIR2), the Emax lay in the range of 55 to 80% and the 50% inhibitory concentration (IC50) is over 1000 nM.

In the case of `CNc1nccn2c(-c3cc(C(=O)N[C@H](C)c4ccccc4)n(C)n3)cnc12` [Example 190, (R)-1-methyl-3-(8-(methylamino)imidazo [1,2-a]pyrazin-3-yl)-N-(1-phenylethyl)-1H-pyrazole-5-carboxamide], in assay [1], the IC50 is over 2500 nM. Also, on RIPK2 (KD)/XIAP (BIR2), the Emax lay in the range of 30 to 55% and the IC50 is over 1000 nM.

For `COc1cc2ncnc(-c3cc(C(=O)NCc4ccccc4)n(C)n3)c2cc1S(=O)(=O)C(C)(C)C` [Example 191, N-benzyl-3-(6-(tert-butylsulfonyl)-7-methoxyquinazolin-4-yl)-1-methyl-1H-pyrazole-5-carboxamide], in assay [1], the IC50 is over 2500 nM. For the same molecule, on RIPK2 (KD)/XIAP (BIR2), the Emax was at least 80% and the IC50 was 100 to 1000 nM.

As to `COc1cc2ncnc(-c3cc(C(=O)N[C@H](C)c4ccccc4)n(C)n3)c2cc1S(=O)(=O)C(C)(C)C` [Example 192, (R)-3-(6-(tert-butylsulfonyl)-7-methoxyquinazolin-4-yl)-1-methyl-N-(1-phenylethyl)-1H-pyrazole-5-carboxamide], the 50% inhibitory concentration (IC50) in assay [1] was in the range of 500 to 2500 nM; on RIPK2 (KD)/XIAP (BIR2) it was 10 to 100 nM. For the same molecule, the Emax at RIPK2 (KD)/XIAP (BIR2) is at least 80%.

One may read the IC50 as the concentration needed to halve the response being measured.
